Legend:
[1] = target: Serine/threonine-protein kinase 17A (Homo sapiens) (UniProt Q9UEE5); settings: Compound concentration 1000.0 nM
[2] = target: Phosphorylase b kinase gamma catalytic chain, skeletal muscle/heart isoform (Homo sapiens) (UniProt Q16816); settings: Compound concentration 1000.0 nM
[3] = target: Ribosomal protein S6 kinase alpha-4 (Homo sapiens) (UniProt O75676); settings: Compound concentration 1000.0 nM
[4] = target: Dual specificity protein kinase CLK4 (Homo sapiens) (UniProt Q9HAZ1); settings: Compound concentration 1000.0 nM
[5] = test system: Epidermal growth factor receptor (Homo sapiens), P00533 [L858R]; settings: Compound concentration 1000.0 nM
[6] = target: Activated CDC42 kinase 1 (Homo sapiens) (UniProt Q07912); settings: Compound concentration 1000.0 nM
Chain of Activated CDC42 kinase 1 (Homo sapiens) (Q07912 whole entry, looked up): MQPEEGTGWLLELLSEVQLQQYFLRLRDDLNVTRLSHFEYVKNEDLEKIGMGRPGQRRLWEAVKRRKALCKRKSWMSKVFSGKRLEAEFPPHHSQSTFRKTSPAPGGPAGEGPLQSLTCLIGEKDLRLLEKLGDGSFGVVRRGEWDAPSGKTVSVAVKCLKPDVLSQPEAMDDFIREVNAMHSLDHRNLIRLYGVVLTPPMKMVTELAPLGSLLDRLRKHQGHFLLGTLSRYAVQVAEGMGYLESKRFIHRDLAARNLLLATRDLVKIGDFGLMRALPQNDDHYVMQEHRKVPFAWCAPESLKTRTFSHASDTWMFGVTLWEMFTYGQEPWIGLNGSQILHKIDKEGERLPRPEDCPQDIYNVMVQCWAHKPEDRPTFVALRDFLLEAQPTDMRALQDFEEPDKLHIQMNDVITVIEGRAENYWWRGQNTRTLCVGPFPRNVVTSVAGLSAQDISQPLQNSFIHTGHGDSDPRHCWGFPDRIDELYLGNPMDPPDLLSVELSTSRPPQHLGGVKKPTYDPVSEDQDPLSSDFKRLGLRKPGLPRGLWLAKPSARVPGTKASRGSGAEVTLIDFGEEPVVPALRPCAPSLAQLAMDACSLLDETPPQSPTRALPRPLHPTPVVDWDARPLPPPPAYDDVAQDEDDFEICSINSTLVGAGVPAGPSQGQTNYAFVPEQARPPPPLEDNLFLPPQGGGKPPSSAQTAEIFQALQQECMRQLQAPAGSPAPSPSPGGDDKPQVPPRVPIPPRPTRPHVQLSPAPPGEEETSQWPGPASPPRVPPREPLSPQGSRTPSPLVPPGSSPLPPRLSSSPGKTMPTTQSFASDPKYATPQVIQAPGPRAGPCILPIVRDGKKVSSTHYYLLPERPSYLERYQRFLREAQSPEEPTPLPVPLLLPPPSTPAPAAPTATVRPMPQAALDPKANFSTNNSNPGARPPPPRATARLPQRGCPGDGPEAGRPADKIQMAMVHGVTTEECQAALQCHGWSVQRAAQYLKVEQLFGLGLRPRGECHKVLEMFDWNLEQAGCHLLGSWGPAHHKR

[7] = target: G protein-coupled receptor kinase 3 (Homo sapiens) (UniProt P35626); settings: Compound concentration 1000.0 nM
Chain of G protein-coupled receptor kinase 3 (Homo sapiens) (P35626 whole entry): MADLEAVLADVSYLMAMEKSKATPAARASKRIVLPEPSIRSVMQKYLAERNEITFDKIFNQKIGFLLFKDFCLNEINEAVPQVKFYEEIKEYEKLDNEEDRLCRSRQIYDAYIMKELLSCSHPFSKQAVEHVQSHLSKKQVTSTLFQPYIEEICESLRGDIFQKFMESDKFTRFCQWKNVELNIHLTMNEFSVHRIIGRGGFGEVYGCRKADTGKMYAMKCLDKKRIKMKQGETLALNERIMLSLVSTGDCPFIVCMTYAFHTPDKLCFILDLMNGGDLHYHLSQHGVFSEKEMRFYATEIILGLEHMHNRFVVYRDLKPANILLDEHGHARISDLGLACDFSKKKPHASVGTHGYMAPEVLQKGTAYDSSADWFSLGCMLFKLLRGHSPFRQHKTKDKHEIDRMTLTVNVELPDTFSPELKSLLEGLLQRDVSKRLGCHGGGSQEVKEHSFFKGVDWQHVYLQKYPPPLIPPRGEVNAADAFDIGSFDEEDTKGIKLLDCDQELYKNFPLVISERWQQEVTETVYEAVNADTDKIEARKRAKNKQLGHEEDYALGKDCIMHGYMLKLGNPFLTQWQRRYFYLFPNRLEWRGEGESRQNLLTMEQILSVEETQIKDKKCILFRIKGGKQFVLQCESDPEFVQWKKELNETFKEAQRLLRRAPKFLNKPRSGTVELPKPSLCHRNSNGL

[8] = target: Serine/threonine-protein kinase D2 (Homo sapiens) (UniProt Q9BZL6); settings: Compound concentration 1000.0 nM
[9] = target: Serine/threonine-protein kinase RIO1 (Homo sapiens) (UniProt Q9BRS2); settings: Compound concentration 1000.0 nM
[10] = target: 5-hydroxytryptamine receptor 6 (Homo sapiens) (UniProt P50406); settings: Compound concentration 10.0 uM
[11] = target: TRAF2 and NCK-interacting protein kinase (Homo sapiens) (UniProt Q9UKE5); settings: Compound concentration 1000.0 nM
Chain of TRAF2 and NCK-interacting protein kinase (Homo sapiens) (Q9UKE5 whole entry, looked up): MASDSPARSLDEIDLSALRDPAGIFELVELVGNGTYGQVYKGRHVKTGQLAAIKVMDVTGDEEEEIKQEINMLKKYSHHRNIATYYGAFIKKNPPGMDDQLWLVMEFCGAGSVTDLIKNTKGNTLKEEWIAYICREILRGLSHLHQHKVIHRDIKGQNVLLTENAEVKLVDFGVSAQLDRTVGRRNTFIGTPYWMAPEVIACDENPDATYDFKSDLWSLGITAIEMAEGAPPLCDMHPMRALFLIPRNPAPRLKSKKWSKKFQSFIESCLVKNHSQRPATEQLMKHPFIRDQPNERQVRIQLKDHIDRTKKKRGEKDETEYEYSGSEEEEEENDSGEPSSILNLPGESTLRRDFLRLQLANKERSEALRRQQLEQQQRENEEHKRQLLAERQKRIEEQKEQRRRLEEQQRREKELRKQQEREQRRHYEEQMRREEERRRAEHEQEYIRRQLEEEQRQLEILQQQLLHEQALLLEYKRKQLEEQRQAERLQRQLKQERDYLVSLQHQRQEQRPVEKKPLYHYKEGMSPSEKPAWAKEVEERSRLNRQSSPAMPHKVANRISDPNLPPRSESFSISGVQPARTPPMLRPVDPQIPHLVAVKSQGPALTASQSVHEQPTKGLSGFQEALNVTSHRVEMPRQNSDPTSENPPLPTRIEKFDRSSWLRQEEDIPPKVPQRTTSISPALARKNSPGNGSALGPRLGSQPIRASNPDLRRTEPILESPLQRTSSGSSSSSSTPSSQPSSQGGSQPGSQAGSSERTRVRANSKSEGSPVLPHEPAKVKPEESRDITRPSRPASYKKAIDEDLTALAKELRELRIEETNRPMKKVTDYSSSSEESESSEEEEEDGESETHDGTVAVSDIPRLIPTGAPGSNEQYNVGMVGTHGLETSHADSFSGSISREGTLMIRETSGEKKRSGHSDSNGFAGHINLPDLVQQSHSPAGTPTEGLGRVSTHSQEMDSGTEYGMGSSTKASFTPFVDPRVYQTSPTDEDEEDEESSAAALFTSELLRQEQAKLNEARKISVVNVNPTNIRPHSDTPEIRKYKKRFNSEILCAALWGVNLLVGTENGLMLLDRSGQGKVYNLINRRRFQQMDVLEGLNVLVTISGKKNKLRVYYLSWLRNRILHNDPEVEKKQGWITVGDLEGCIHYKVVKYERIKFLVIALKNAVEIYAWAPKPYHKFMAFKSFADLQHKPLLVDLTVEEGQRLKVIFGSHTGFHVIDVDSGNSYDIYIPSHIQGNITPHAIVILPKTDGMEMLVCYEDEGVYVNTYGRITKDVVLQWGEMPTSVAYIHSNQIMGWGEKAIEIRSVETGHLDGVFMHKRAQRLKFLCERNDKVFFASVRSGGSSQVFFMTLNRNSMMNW

[12] = target: Wee1-like protein kinase (Homo sapiens) (UniProt P30291); settings: Compound concentration 1000.0 nM
[13] = target: Epidermal growth factor receptor (Homo sapiens) (UniProt P00533); settings: Compound concentration 1000.0 nM
[14] = target: Ephrin type-A receptor 6 (Homo sapiens) (UniProt Q9UF33); settings: Compound concentration 1000.0 nM
Chain of Ephrin type-A receptor 6 (Homo sapiens) (Q9UF33 whole entry): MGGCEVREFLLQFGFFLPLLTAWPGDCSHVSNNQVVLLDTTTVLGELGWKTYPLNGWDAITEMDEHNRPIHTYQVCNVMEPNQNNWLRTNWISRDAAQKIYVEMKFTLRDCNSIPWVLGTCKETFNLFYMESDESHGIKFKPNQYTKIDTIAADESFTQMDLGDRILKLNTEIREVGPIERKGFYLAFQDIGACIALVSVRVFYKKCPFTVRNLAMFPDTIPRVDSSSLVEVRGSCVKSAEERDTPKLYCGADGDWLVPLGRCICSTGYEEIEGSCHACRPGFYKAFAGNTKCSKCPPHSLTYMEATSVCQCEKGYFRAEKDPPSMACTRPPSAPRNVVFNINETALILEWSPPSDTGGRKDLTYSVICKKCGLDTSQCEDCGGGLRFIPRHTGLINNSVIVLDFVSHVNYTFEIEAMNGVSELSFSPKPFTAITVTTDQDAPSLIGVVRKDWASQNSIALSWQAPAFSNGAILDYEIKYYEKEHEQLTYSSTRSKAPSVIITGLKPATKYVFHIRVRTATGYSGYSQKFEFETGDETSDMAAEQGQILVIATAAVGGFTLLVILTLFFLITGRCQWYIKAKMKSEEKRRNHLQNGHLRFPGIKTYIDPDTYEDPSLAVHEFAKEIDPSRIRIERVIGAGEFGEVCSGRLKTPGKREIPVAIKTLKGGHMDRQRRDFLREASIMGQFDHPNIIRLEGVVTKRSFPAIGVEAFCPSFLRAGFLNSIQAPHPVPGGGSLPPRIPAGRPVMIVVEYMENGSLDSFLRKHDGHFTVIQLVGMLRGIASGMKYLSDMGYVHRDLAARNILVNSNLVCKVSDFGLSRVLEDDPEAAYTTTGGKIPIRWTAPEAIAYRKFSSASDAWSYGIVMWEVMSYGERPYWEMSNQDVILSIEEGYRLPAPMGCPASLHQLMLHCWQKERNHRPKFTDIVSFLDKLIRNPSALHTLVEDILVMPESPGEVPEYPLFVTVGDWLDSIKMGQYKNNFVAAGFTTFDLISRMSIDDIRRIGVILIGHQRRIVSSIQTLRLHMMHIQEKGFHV

[15] = test system: Epidermal growth factor receptor (Homo sapiens), P00533 [UNDEFINED MUTATION]; settings: Compound concentration 1000.0 nM
[16] = test system: Epidermal growth factor receptor (Homo sapiens), P00533 [L861Q]; settings: Compound concentration 1000.0 nM
[17] = target: 5-hydroxytryptamine receptor 5A (Homo sapiens) (UniProt P47898); settings: Compound concentration 10.0 uM
[18] = target: Mitogen-activated protein kinase 15 (Homo sapiens) (UniProt Q8TD08); settings: Compound concentration 1000.0 nM
[19] = target: Phosphatidylinositol 4,5-bisphosphate 3-kinase catalytic subunit gamma isoform (Homo sapiens) (UniProt P48736); settings: Compound concentration 1000.0 nM
[20] = target: Serine/threonine-protein kinase tousled-like 1 (Homo sapiens) (UniProt Q9UKI8); settings: Compound concentration 1000.0 nM
[21] = target: Dual specificity mitogen-activated protein kinase kinase 1 (Homo sapiens) (UniProt Q02750); settings: Compound concentration 1000.0 nM
[22] = target: Alpha-1D adrenergic receptor (Homo sapiens) (UniProt P25100); settings: Compound concentration 10.0 uM
[23] = target: Ephrin type-A receptor 2 (Homo sapiens) (UniProt P29317); settings: Compound concentration 1000.0 nM
[24] = target: T1, Alpha-1B adrenergic receptor (Homo sapiens) (UniProt P35368); settings: Compound concentration 10.0 uM
T1 sequence (whole entry): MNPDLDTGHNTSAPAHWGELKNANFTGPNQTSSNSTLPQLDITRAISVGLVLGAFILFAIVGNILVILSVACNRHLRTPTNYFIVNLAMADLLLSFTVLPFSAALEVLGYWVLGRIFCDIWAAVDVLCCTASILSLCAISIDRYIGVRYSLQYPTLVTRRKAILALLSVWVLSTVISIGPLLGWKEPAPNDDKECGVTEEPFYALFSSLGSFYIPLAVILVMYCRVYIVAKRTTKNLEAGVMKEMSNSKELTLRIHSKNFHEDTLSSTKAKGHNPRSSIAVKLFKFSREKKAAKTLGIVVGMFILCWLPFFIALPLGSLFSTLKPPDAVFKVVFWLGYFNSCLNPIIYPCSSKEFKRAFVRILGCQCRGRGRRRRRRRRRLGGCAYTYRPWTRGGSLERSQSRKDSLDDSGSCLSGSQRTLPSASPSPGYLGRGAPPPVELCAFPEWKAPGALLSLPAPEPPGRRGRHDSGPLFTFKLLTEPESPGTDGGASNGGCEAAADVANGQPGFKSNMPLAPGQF

[25] = target: MAP/microtubule affinity-regulating kinase 4 (Homo sapiens) (UniProt Q96L34); settings: Compound concentration 1000.0 nM
[26] = target: Serine/threonine-protein kinase pim-2 (Homo sapiens) (UniProt Q9P1W9); settings: Compound concentration 1000.0 nM
[27] = target: Cyclin-dependent kinase 15 (Homo sapiens) (UniProt Q96Q40); settings: Compound concentration 1000.0 nM
Chain of Cyclin-dependent kinase 15 (Homo sapiens) (Q96Q40 whole entry, canonical isoform): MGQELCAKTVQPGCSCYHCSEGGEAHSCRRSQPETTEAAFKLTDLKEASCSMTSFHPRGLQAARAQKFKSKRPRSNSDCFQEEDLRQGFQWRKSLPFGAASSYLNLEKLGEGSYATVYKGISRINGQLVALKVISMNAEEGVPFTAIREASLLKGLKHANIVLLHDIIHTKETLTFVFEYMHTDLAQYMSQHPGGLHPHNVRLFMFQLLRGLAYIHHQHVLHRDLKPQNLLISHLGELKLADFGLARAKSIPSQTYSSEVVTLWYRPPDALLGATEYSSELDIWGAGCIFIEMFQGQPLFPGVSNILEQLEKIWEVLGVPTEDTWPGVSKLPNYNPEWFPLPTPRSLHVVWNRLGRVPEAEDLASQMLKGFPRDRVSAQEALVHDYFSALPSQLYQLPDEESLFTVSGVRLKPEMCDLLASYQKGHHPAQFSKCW

[28] = target: Casein kinase I isoform alpha-like (Homo sapiens) (UniProt Q8N752); settings: Compound concentration 1000.0 nM
[29] = target: Phosphatidylinositol 3-kinase C2 domain-containing subunit gamma (Homo sapiens) (UniProt O75747); settings: Compound concentration 1000.0 nM
[30] = target: Ephrin type-B receptor 6 (Homo sapiens) (UniProt O15197); settings: Compound concentration 1000.0 nM
[31] = target: Serine/threonine-protein kinase MARK1 (Homo sapiens) (UniProt Q9P0L2); settings: Compound concentration 1000.0 nM
[32] = target: Mitogen-activated protein kinase kinase kinase 3 (Homo sapiens) (UniProt Q99759); settings: Compound concentration 1000.0 nM
[33] = target: Alpha-2C adrenergic receptor (Homo sapiens) (UniProt P18825); settings: Compound concentration 10.0 uM
[34] = target: Serine/threonine-protein kinase Nek11 (Homo sapiens) (UniProt Q8NG66); settings: Compound concentration 1000.0 nM
[35] = target: Delta-type opioid receptor (Homo sapiens, UniProt P41143); test: GPCRScan assay: inhibition of DOR; parameters: radioligand conc. used [nm] 1.0 – 2.0, parental cells stable HEK
[36] = test system: Tyrosine-protein kinase ABL1 (Homo sapiens), P00519 [Q252H]; settings: Compound concentration 1000.0 nM
[37] = target: cAMP-dependent protein kinase catalytic subunit alpha (Homo sapiens) (UniProt P17612); settings: Compound concentration 1000.0 nM
[38] = target: Cyclin-dependent kinase 8 (Homo sapiens) (UniProt P49336); settings: Compound concentration 1000.0 nM

Chain of Serine/threonine-protein kinase 17A (Homo sapiens) (Q9UEE5 whole entry, canonical isoform): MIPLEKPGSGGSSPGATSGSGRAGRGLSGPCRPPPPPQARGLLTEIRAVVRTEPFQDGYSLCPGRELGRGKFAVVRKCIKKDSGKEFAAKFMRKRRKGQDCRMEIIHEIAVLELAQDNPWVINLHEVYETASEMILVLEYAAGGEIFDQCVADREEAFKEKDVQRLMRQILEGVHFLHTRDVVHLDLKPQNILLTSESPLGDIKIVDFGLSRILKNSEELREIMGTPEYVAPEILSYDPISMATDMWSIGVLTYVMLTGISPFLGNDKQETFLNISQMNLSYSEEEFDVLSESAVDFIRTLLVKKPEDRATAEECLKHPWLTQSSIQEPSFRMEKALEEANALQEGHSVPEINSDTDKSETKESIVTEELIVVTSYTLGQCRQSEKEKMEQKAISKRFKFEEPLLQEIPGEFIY

SMILES: CN(C)CC#Cc1ccc(OCCCc2sc(N3CCc4cccc(C(=O)Nc5nc6ccccc6s5)c4C3)nc2C(=O)O)c(F)c1 [A-1155463]
- residual activity [1]: 85%
- residual activity [2]: 98%
- residual activity [3]: 96%
- residual activity [4]: 74%
- residual activity [5]: 89%
- residual activity [6]: 100%
- residual activity [7]: 92%
- residual activity [8]: 84%
- residual activity [9]: 91%
- inhibition [10]: -1.75%
- residual activity [11]: 83%
- residual activity [12]: 100%
- residual activity [13]: 87%
- residual activity [14]: 100%
- residual activity [15]: 94%
- residual activity [16]: 100%
- inhibition [17]: -3.1%
- residual activity [18]: 100%
- residual activity [19]: 100%
- residual activity [20]: 86%
- residual activity [21]: 100%
- inhibition [22]: 1.52%
- residual activity [23]: 92%
- inhibition [24]: 0.97%
- residual activity [25]: 76%
- residual activity [26]: 100%
- residual activity [27]: 100%
- residual activity [28]: 100%
- residual activity [29]: 100%
- residual activity [30]: 100%
- residual activity [31]: 93%
- residual activity [32]: 90%
- inhibition [33]: 10.8%
- residual activity [34]: 100%
- Ki [35]: 2120 nM
- residual activity [36]: 88%
- residual activity [37]: 89%
- residual activity [38]: 69%

— ChEMBL document CHEMBL4507311, “Data for DCP probe A-1155463” (2021)
